According to patent publication US6737383B1, “Herbicidal oxadiazolidines” (priority 1999, dated 2004):

Key:
morningglory = assay: Test B pre/postemergence morningglory; assay type: in vivo, Ipomoea hederacea
Outline: (§1)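 Test chemicals in a non-phytotoxic solvent mixture with surfactant were sprayed preemergence onto planted seeds and postemergence onto plants 2 to 18 cm tall (1- to 4-leaf stage). After twelve to sixteen days in a greenhouse, injury was visually rated against untreated controls from 0 (no effect) to 10 (complete control).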

duck salad = assay: Test B flood test duck salad; assay type: in vivo, Heteranthera limosa
Outline: (§2)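 Each value is a visual injury score relative to controls, with 10 meaning complete control and 0 no effect. Evaluation took place twelve to sixteen days after the 2-leaf-stage plants were treated and kept in the greenhouse.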

giant foxtail = assay: Test B pre/postemergence giant foxtail; assay type: in vivo, Setaria faberii
Outline: as §1

bamyardgrass = assay: Test B flood test barnyardgrass; assay type: in vivo, Echinochloa crus-galli
Outline: as §2

velvetleaf = assay: Test B pre/postemergence velvetleaf; assay type: in vivo, Abutilon theophrasti
Outline: as §1

rape = assay: Test B pre/postemergence rape; assay type: in vivo, Brassica napus
Outline: as §1

blackgrass = assay: Test B pre/postemergence blackgrass; assay type: in vivo, Alopecurus myosuroides
Outline: as §1

soybean = assay: Test B pre/postemergence soybean; assay type: in vivo, Glycine max
Outline: as §1

sugar beet = assay: Test B pre/postemergence sugar beet; assay type: in vivo, Beta vulgaris
Outline: as §1

corn = assay: Test B pre/postemergence corn; assay type: in vivo, Zea mays
Outline: as §1

surinam grass = assay: Test B pre/postemergence surinam grass; assay type: in vivo, Brachiaria decumbens
Outline: as §1

bedstraw = assay: Test B pre/postemergence bedstraw; assay type: in vivo, Galium aparine
Outline: as §1

smallflower flatsedge = assay: Test B flood test smallflower flatsedge; assay type: in vivo, Cyperus difformis
Outline: as §2

rice = assay: Test B flood test rice; assay type: in vivo, Oryza sativa
Outline: as §2

purple nutsedge = assay: Test B pre/postemergence purple nutsedge; assay type: in vivo, Cyperus rotundus
Outline: as §1

pigweed = assay: Test B pre/postemergence pigweed; assay type: in vivo, Amaranthus retroflexus
Outline: as §1

[1] = Postemergence, Rate 62 g/ha, scale 0 to 10, 0 is no effect, 10 is complete control
[2] = Postemergence, Rate 250 g/ha, scale 0 to 10, 0 no effect, 10 complete control
[3] = Preemergence, Rate 62 g/ha, scale 0 to 10 (0 no effect, 10 complete control)
[4] = Preemergence, Rate 125 g/ha, scale 0 to 10 (0 no effect, 10 complete control)
[5] = Preemergence, Rate 250 g/ha, scale of 0 to 10 where 0 is no effect and 10 is complete control
[6] = Preemergence, Rate 500 g/ha, scale 0 (no effect) to 10 (complete control)
[7] = Rate 125 g/ha, Postemergence, scale 0 to 10, 0 no effect, 10 complete control
[8] = Rate 500 g/ha, Postemergence, scale 0 to 10, 0 no effect, 10 complete control
[9] = Rate 125 g/ha, Postemergence section (flood test species), scale 0 to 10, 0 no effect, 10 complete control
[10] = Rate 500 g/ha, listed under Postemergence (flood test species), scale 0 to 10, 0 no effect, 10 complete control
[11] = flood test, listed under Postemergence, Rate 250 g/ha, scale 0 to 10, 0 no effect, 10 complete control

Cc1nn(C)c(C)c1-n1c(=O)on(C(=O)N(c2ccc(F)cc2)C(C)C)c1=O [Compound 75]
1: Morningglory plant response rating (morningglory; [1]) | Morningglory plant response rating (morningglory; [2]) | Morningglory plant response rating (morningglory; [7]) | Plant response rating, Blackgrass (blackgrass; [4]) | Soybean plant response rating (soybean; [1]) | Soybean plant response rating (soybean; [7]) | Plant response rating, B. signalgrass (surinam grass; [4])
7: Blackgrass plant response rating (blackgrass; [2]) | Plant response rating, Blackgrass (blackgrass; [5]) | Plant response rating, Redroot pigweed (pigweed; [5])
5: Blackgrass plant response rating (blackgrass; [7])
10: Giant foxtail plant response rating (giant foxtail; [6]) | Rape plant response rating (rape; [6]) | Redroot pigweed plant response rating (pigweed; [6])
3: Morningglory plant response rating (morningglory; [8]) | Giant foxtail plant response rating (giant foxtail; [1]) | Blackgrass plant response rating (blackgrass; [1]) | B. signalgrass plant response rating (surinam grass; [7])
6: Giant foxtail plant response rating (giant foxtail; [3]) | Giant foxtail plant response rating (giant foxtail; [7]) | B. signalgrass plant response rating (surinam grass; [2])
4: Sugarbeets plant response rating (sugar beet; [6])
9: Plant response rating, Giant foxtail (giant foxtail; [4]) | Plant response rating, Giant foxtail (giant foxtail; [5]) | Blackgrass plant response rating (blackgrass; [6]) | Blackgrass plant response rating (blackgrass; [8])
2: Morningglory plant response rating (morningglory; [6]) | Soybean plant response rating (soybean; [2]) | Soybean plant response rating (soybean; [8]) | B. signalgrass plant response rating (surinam grass; [1]) | Plant response rating, B. signalgrass (surinam grass; [5]) | Rice plant response rating (rice; [1]) | Rice plant response rating (rice; [9]) | Rice plant response rating (rice; [10]) | Rice plant response rating (rice; [11]) | Plant response rating, Redroot pigweed (pigweed; [4])
0: Morningglory plant response rating (morningglory; [3]) | Plant response rating, Morningglory (morningglory; [4]) | Plant response rating, Morningglory (morningglory; [5]) | Ducksalad plant response rating (duck salad; [1]) | Ducksalad plant response rating (duck salad; [9]) | Ducksalad plant response rating (duck salad; [10]) | Ducksalad plant response rating (duck salad; [11]) | Barnyardgrass plant response rating (bamyardgrass; [1]) | Barnyardgrass plant response rating (bamyardgrass; [9]) | Barnyardgrass plant response rating (bamyardgrass; [10]) | Barnyardgrass plant response rating (bamyardgrass; [11]) | Velvetleaf plant response rating (velvetleaf; [1]) | Velvetleaf plant response rating (velvetleaf; [2]) | Velvetleaf plant response rating (velvetleaf; [3]) | Plant response rating, Velvetleaf (velvetleaf; [4]) | Plant response rating, Velvetleaf (velvetleaf; [5]) | Velvetleaf plant response rating (velvetleaf; [6]) | Velvetleaf plant response rating (velvetleaf; [7]) | Velvetleaf plant response rating (velvetleaf; [8]) | Rape plant response rating (rape; [1]) | Rape plant response rating (rape; [2]) | Rape plant response rating (rape; [3]) | Plant response rating, Rape (rape; [4]) | Plant response rating, Rape (rape; [5]) | Rape plant response rating (rape; [7]) | Rape plant response rating (rape; [8]) | Blackgrass plant response rating (blackgrass; [3]) | Soybean plant response rating (soybean; [3]) | Plant response rating, Soybean (soybean; [4]) | Plant response rating, Soybean (soybean; [5]) | Soybean plant response rating (soybean; [6]) | Sugarbeets plant response rating (sugar beet; [1]) | Sugarbeets plant response rating (sugar beet; [2]) | Sugarbeets plant response rating (sugar beet; [3]) | Plant response rating, Sugarbeets (sugar beet; [4]) | Plant response rating, Sugarbeets (sugar beet; [5]) | Sugarbeets plant response rating (sugar beet; [7]) | Sugarbeets plant response rating (sugar beet; [8]) | Corn plant response rating (corn; [1]) | Corn plant response rating (corn; [2]) | Corn plant response rating (corn; [3]) | Plant response rating, Corn (corn; [4]) | Plant response rating, Corn (corn; [5]) | Corn plant response rating (corn; [6]) | Corn plant response rating (corn; [7]) | Corn plant response rating (corn; [8]) | B. signalgrass plant response rating (surinam grass; [3]) | Bedstraw plant response rating (bedstraw; [1]) | Bedstraw plant response rating (bedstraw; [2]) | Bedstraw plant response rating (bedstraw; [3]) | Plant response rating, Bedstraw (bedstraw; [4]) | Plant response rating, Bedstraw (bedstraw; [5]) | Bedstraw plant response rating (bedstraw; [6]) | Bedstraw plant response rating (bedstraw; [7]) | Bedstraw plant response rating (bedstraw; [8]) | S. Flatsedge plant response rating (smallflower flatsedge; [1]) | S. Flatsedge plant response rating (smallflower flatsedge; [9]) | S. Flatsedge plant response rating (smallflower flatsedge; [10]) | S. Flatsedge plant response rating (smallflower flatsedge; [11]) | Nutsedge plant response rating (purple nutsedge; [1]) | Nutsedge plant response rating (purple nutsedge; [2]) | Nutsedge plant response rating (purple nutsedge; [3]) | Plant response rating, Nutsedge (purple nutsedge; [4]) | Plant response rating, Nutsedge (purple nutsedge; [5]) | Nutsedge plant response rating (purple nutsedge; [6]) | Nutsedge plant response rating (purple nutsedge; [7]) | Nutsedge plant response rating (purple nutsedge; [8]) | Redroot pigweed plant response rating (pigweed; [1]) | Redroot pigweed plant response rating (pigweed; [2]) | Redroot pigweed plant response rating (pigweed; [3]) | Redroot pigweed plant response rating (pigweed; [7]) | Redroot pigweed plant response rating (pigweed; [8])
8: Giant foxtail plant response rating (giant foxtail; [2]) | Giant foxtail plant response rating (giant foxtail; [8]) | B. signalgrass plant response rating (surinam grass; [6]) | B. signalgrass plant response rating (surinam grass; Rate 500 g/ha, Postemergence, scale of 0 to 10 where 0 is no effect and 10 is complete control)
